The results in this text go back to paper PMC6272251, “Two New Phenolic Glucosides from Lagerstroemia speciosa” (Molecules, 2015).

Test [1] relates to nitric oxide production in lipopolysaccharide-treated RAW264.7 cells. Nature of the test: Inhibition of LPS-induced NO production in RAW264.7 cells (Griess reagent). The class given is cell-based. To be noted: Mus musculus, RAW 264.7 cells, compounds 30 min then LPS 1.0 μg/mL for 24 h. As for the experimental part:
RAW264.7 cells were plated at 1 × 10^6 cells/mL and incubated for 18 h. After incubation, the cells were treated with Compounds 1–12 for 30 min and then continuously incubated with LPS (1.0 μg/mL) for 24 h. The inhibitory effects of the isolated compounds on NO production were evaluated by using the Griess reagent and an EIA kit to determine the NO levels, as described previously.

In another test the test system is RAW264.7 cells. Nature of the test: Cell viability test (MTT assay). The class given is cell-based. Particulars: Mus musculus, RAW 264.7 cells, compounds 25 to 150 μM, 24 h. The procedure: RAW264.7 cells were plated at 1 × 10^6 cells/mL and incubated for 18 h followed by the addition of Compounds 1–12 to the cells (25 to 150 μM), and the cells were incubated for 24 h. The cytotoxicity was evaluated by an MTT (3-(4,5-dimethylthiazol-2-yl)-2,5-diphenyltetrazolium bromide) assay. The […] of MTT solution (10 mg/mL in phosphate buffered saline, pH 7.4) were added to the cells 3 h prior to the end of the culture period. The incubation was terminated by the addition of 15% sodium dodecyl sulfate to each well to solubilize the formazan. The absorbance was measured by a microplate reader at 570 nm (OD570-630).

Molecules are shown by their SMILES. Where only a bound is given, the exact number is not on record here.

As to `O=C(C=Cc1ccc(O)c(O)c1)OCC1OC(OCc2ccccc2)C(O)C(O)C1O` [Compound 1, 1-O-benzyl-6-O-E-caffeoyl-β-D-glucopyranoside], the IC50 in test [1] was 81.8 ± 1.3 µM; with RAW264.7 cells, above 100 µM.
In the case of `COc1cc(C(O)C(O)CO)ccc1OC1OC(COC(=O)C=Cc2ccc(O)c(O)c2)C(O)C(O)C1O` [Compound 2, 1-O-(7S,8R)-guaiacylglycerol-(6-O-E-caffeoyl)-β-D-glucopyranoside], the results for the IC50 (in test [1]; in the test on RAW264.7 cells) were 71.1 ± 1.9 µM and 87.7 ± 3.5 µM, respectively.
As for `O=c1c(O[C@@H]2O[C@H](CO)[C@H](O)[C@H](O)[C@H]2O)c(-c2ccc(O)c(O)c2)oc2cc(O)cc(O)c12` [Compound 3, quercetin-3-O-β-D-galactopyranoside], the IC50 in test [1] is 81.9 ± 1.9 µM; in the test on RAW264.7 cells it was above 100 µM.
For `O=C(C=Cc1ccc(O)c(O)c1)OCC1OC(Oc2c(-c3ccc(O)c(O)c3)oc3cc(O)cc(O)c3c2=O)C(O)C(O)C1O` [Compound 4, quercetin-3-O-(6''-O-E-caffeoyl)-β-D-galactopyranoside], in that order: 83.3 ± 0.9 µM and above 100 µM.
On the same counts, the results for `O=C(C=Cc1ccc(O)c(O)c1)OCC1OC(OC(=O)C=Cc2ccc(O)c(O)c2)C(O)C(O)C1O` [Compound 5, 1,6-di-O-E-caffeoyl-β-D-glucopyranoside] are 69.5 ± 1.4 µM and above 100 µM.
As to `COc1cc(CCCO)cc(OC)c1O[C@@H]1O[C@H](CO)[C@@H](O)[C@H](O)[C@H]1O` [Compound 7, dihydrosyringin], the IC50 in test [1] is 76.2 ± 0.6 µM; in the test with RAW264.7 cells, above 100 µM.
On the same counts, the results for `O=C(C=Cc1ccc(O)c(O)c1)OC1OC(CO)C(O)C(O)C1O` [Compound 8, 1-O-E-caffeoyl-β-D-glucopyranoside] are 70.7 ± 1.2 µM and 84.8 ± 5 µM.
For `COc1c(O)cc2c(=O)oc3c(O)c(O)cc4c(=O)oc1c2c34` [Compound 10, 3-O-methylellagic acid], in that order: 78 ± 2.3 µM and above 100 µM.
On the same counts, the results for `O=C(/C=C/c1ccc(O)c(O)c1)O[C@@H]1C[C@](O)(C(=O)O)C[C@@H](O)[C@H]1O` [Compound 11, chlorogenic acid] are 81.2 ± 0.7 µM and above 100 µM.
